The source of these data is patent US20230271938A1, “BENZIMIDAZOLES FOR USE IN THE TREATMENT OF CANCER AND INFLAMMATORY DISEASES” (Capella Therapeutics, Inc., priority 2015, published 2023).

Assay [1] concerns the target BTK (Homo sapiens, UniProt Q06187). Kind of assay: Inhibition of BTK kinase. It is filed as biochemical. The conditions noted are these: 1% DMSO. From the text:
(§1) The Z′-LYTE® biochemical assay is a fluorescence-based, coupled-enzyme assay based on the differential sensitivity of phosphorylated and non-phosphorylated peptides to proteolytic cleavage. A peptide substrate for a kinase is labeled with two fluorophores, one at each end, to form a FRET pair.
(§2) In the primary reaction, the kinase transfers the gamma-phosphate of ATP to a single tyrosine, serine, or threonine residue in the synthetic FRET-peptide substrate. In the secondary reaction, a site-specific protease recognizes and cleaves non-phosphorylated FRET-peptides. Cleavage disrupts FRET between the donor and acceptor fluorophores on the FRET-peptide, whereas uncleaved, phosphorylated FRET-peptides maintain FRET. An inhibitory activity of a compound is thus determined from its effect on the cleavage of the synthetic FRET-peptide substrate.
(§3) Inhibition of BMX, BTK, ITK, and TXK kinases by a test compound is determined in 50 mM HEPES, pH 7.5, 0.01% BRIJ-35, 10 mM MgCl2, and 1 mM EGTA in the presence of 1% DMSO by volume.
(§4) Inhibition of BMX, BTK, PIK3C-D, ITK, TEC, and TXK kinases by compound A2 was measured using one of the assays described in Examples 2A and 3A.

Assay [2] deals with T1, ITK (Homo sapiens, UniProt Q08881).
T1 sequence (Q08881 1-620): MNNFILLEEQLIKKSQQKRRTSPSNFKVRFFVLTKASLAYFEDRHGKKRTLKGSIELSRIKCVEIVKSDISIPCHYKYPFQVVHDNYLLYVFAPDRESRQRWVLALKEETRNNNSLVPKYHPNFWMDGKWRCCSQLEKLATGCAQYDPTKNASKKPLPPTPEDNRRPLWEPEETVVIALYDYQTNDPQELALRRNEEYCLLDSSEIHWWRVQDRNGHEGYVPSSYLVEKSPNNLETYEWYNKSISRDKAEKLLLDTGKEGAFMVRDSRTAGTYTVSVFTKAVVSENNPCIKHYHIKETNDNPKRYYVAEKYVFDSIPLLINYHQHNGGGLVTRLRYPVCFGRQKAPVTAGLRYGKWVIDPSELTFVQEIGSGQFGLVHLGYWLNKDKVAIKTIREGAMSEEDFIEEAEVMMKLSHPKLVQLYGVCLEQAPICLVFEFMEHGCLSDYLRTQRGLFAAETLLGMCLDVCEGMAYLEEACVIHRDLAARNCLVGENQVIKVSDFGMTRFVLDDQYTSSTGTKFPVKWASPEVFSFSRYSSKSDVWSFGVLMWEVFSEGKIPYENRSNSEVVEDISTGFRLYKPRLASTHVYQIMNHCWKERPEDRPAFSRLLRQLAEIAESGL
The experiment in a line: Inhibition of ITK kinase. It is filed as biochemical. The conditions noted are these: 1% DMSO.
Excerpt: as §1
In the primary reaction, the kinase transfers the gamma-phosphate of ATP to a single tyrosine, serine, or threonine residue in the synthetic FRET-peptide substrate. In the secondary reaction, a site-specific protease recognizes and cleaves non-phosphorylated FRET-peptides. […] An inhibitory activity of a compound is thus determined from its effect on the cleavage of the synthetic FRET-peptide substrate.
as §3
Binding of an ALEXA FLUOR® conjugate or “tracer” to a kinase is detected by addition of a Eu-labeled anti-tag antibody. […] An inhibitory activity of a compound is thus determined from the extent of the FRET signal loss. Inhibition of ITK and TEC kinases by a test compound is determined in the presence of 1% DMSO.
as §4

Assay [3] addresses T2, TXK (Homo sapiens, UniProt P42681).
T2 sequence (P42681 1-527): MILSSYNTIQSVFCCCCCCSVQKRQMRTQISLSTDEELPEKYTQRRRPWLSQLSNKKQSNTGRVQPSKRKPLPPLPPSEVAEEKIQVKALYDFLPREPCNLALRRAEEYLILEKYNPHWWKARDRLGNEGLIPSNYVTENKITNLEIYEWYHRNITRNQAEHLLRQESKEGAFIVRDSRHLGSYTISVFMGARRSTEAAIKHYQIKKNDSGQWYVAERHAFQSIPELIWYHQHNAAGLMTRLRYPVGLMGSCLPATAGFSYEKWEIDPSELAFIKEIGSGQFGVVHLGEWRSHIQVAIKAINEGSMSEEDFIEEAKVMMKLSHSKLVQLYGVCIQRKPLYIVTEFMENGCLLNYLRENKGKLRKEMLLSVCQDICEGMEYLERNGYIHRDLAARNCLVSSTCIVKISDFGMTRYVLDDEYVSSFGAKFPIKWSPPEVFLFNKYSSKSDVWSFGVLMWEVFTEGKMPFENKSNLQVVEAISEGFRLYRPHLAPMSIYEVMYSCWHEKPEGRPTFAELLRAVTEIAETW
Kind of assay: Inhibition of TXK kinase. The conditions noted are these: 1% DMSO. It is filed as biochemical.
Excerpt: as §1, §2, §3, §4

In assay [4] the test system is human epidermal keratinocytes, neonatal, or HEKn cells (wild-type ERBB1). Kind of assay: Cell proliferation assay, HEKn. Conditions: Keratinocyte, 72 hrs. It is filed as cell-based. As for the experimental part: The biological activity of a test compound was determined using cell proliferation assays. The activity against wild-type ERBB 1 was determined using A431 human epidermoid carcinoma cells (ATCC) and human epidermal keratinocytes, neonatal, or HEKn cells (ATCC).
A431 cells were grown in DMEM (Invitrogen) supplemented with 10% FBS (Lonza), 1% penicillin-streptomycin, and 2 mM glutamine (Invitrogen). HEKn cells were grown in EPILIFE® (Invitrogen) supplemented with HKGS (Invitrogen). HCC827 and H1975 were cultured in RPMI1640 supplemented with 10% FBS (Lonza), 1% penicillin-streptomycin, and 2 mM glutamine (Invitrogen). Cells were maintained and propagated at 37° C. and 5% CO2 in a humidified cell culture incubator. Aliquots of cells from early passages were preserved for liquid nitrogen storage. Frozen vials of cells were thawed at 37° C. water bath. Cells were spun to remove freezing medium. The newly revived frozen cells were adapted in culture for 10 days before used for compound testing. Cells used in the assay were less than 20 subculture passages or 3 months in culture.
The test compounds were dissolved in dimethylsulfoxide (DMSO) and stored at -20° C. before testing. […] The cells were placed in a culture incubator overnight. Next day, test compounds in DMSO were added to the cells and placed back in the culture incubator for 72 hrs. In the meantime, the cell numbers at time zero of the compound treatment (T0) was measured by ENERCOUNT® (Codex BioSolutions). At the end of the compound treatment, the cell numbers were again measured by EnerCount as T72 values. The untreated controls (Ctrl) were cell numbers recorded from the 0.1% DMSO treatment. The percent growth inhibition by the test compound was calculated by the formula: (1- (T72-T0)/(Ctrl-T0)) x 100.
The results are summarized in Tables 1 and 2, wherein A represents a value no greater than 500 nM, B represents a value greater than 500 nM but no greater than 1 µM, C represents a value greater than 1 µM but no greater than 5 µM, and D represents a value greater than 5 µM; and wherein A′ represents a ratio of greater than 10, B′ represents a ratio of no greater than 10 but no less than 5, C′ represents a ratio of no greater than 5 but no less than 2, and D′ represents a ratio of no greater than 2.

Bounds are passed on as bounds.

Sequence of BTK (Q06187 whole entry): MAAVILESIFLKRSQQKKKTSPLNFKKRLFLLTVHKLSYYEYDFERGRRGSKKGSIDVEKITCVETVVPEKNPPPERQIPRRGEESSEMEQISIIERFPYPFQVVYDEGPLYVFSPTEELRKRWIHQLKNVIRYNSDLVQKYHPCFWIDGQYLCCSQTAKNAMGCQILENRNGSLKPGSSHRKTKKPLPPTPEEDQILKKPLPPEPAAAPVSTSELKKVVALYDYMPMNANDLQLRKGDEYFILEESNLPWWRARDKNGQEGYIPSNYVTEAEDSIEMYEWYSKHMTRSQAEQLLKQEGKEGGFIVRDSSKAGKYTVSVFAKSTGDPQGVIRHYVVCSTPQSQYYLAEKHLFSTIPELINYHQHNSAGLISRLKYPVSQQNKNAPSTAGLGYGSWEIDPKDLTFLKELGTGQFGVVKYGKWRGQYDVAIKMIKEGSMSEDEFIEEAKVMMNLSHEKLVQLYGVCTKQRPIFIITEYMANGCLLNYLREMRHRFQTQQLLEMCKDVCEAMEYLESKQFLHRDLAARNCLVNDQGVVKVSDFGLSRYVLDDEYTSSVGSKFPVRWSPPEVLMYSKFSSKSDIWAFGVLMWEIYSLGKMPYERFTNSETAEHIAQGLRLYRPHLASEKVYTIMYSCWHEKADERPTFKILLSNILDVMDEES

For orientation: IC50 means the concentration that inhibits the measured activity by half. The low end stands for inhibition by little substance, the high end for a need for much substance. A word on the GI50: it is the concentration at which growth is held to half of that of the control. A low value points to more potent growth inhibition. Regarding `C=CC(=O)N1CCCC[C@@H](n2c(NC(=O)c3ccnc(C)c3)nc3cccc(OC4CCN(C(C)=O)CC4)c32)C1` [Compound A2, (R)-N-(7-((1-acetylpiperidin-4-yl)oxy)-1-(1-acryloylazepan-3-yl)-1H-benzo[d]imidazol-2-yl)-2-methylisonicotinamide], the IC50 in assay [1], in assay [2] and in assay [3] was not above 10 nM each time. Further, the Inhibition entry in assay [1], in assay [2] and in assay [3] was “A (A represents a value no greater than 10 nM or no less than 90% inhibition)” in each case. Besides, in assay [4], the GI50 is more than 5000 nM.
